Reference: patent publication US20240374763A1, “DIAGNOSIS AND MONITORING USING EXTRADOMAIN-B FIBRONECTIN TARGETED PROBES” (Case Western Reserve University, priority 2020, published 2024)
Structures can show the parent of a compound that is named as a salt. No end group written: not given here.

Key:
[1] = system: TGF-β-treated and drug-resistant MCF7 and MDA-MB-468 cells; test: MK2206-HCl treatment, transwell invasion assay; assay type: cell-based; conditions: TGFβ-treated and drug-resistant cell derivatives; 2 μM (MCF7) or 4 μM (MDA-MB-468) for 2 days
Experimental: (§1) The invasive TGF-β-treated and drug-resistant MCF7 and MDA-MB-468 populations were treated with MK2206-HCl, a pan-AKT inhibitor, purchased from SelleckChem (Boston, MA). For this treatment, 8×10^5 cells were plated on 6-well plates. After 24 h of attachment, the cells were treated with MK2206-HCl for 2 days (2 μM dose for MCF7 cells and 4 μM dose for MDA-MB-468 cells). Cells treated with equivalent volume of DMSO were used as controls. After treatment, the cells were counted and an equal number of cells was plated on Matrigel and in transwell inserts for the invasion and 3D growth assays, as described in the relevant sections. The treated and non-treated cells were similarly counted and harvested for protein and RNA extraction for western blotting and qRT-PCR, respectively.
For the invasion assay, breast cancer cells were starved in serum-depleted media overnight. The next day, 1-2×10^5 cells were plated in transwell inserts (VWR, Radnor, PA) coated with 0.3 mg/mL Corning™ Matrigel™ Membrane Matrix (Corning, NY). After 1-2 days, the inserts were swabbed with Q-tips to remove the plated cells. The invading cells on the bottom of the inserts were fixed with 4% paraformaldehyde followed by staining with 0.1% crystal violet for 20 min. Excess stain was washed under tap water and images of the purple migrated cells were taken using the Moticam T2 camera with 10× objective lens.

[2] = system: phospho-AKT (T308 and S473); test: MK2206-HCl treatment, western blot of phospho-AKT; assay type: cell-based; conditions: invasive cell derivatives; 2 μM (MCF7) or 4 μM (MDA-MB-468) for 2 days
Experimental: as §1, with “respectively. Total cellular protein was extracted as previously described. […] et al., (2019) Bioconjug Chem 30, 907-919. Protein concentration was determined by Lowry assay and equal concentration of protein extracts (40 μg) was loaded on SDS-PAGE gels, transferred onto nitrocellulose membrane and immunoblotted with primary antibodies overnight. Anti-EDB-FN antibody (G4 clone) was used at 1:1000 dilution. […]” for “respectively.”

EDB-FN [3] = test: MK2206-HCl treatment, qRT-PCR of EDB-FN; assay type: cell-based; conditions: MDA-MB-468-DR cells, 4 μM MK2206-HCl for 2 days, vs DMSO-treated controls
Experimental: as §1
Total RNA was extracted from cells and tissues using the RNeasy Plus Mini Kit (Qiagen, Germantown, MD), according to manufacturer's instructions. RNA concentration was determined and 1 μg of RNA was used to set up reverse transcription using the miScript II RT Kit (Qiagen) and qPCR was performed using the SyBr Green PCR Master Mix (Applied Biosystems, CA). Gene expression was analyzed by the 2-ΔΔCt method with 18S or R-actin expression as the control.

DLD1-DR tumors = test: MK2206-HCl therapy of DLD1-DR tumor-bearing mice, tumor volume; assay type: in vivo; conditions: for average tumor volume: treated group
Experimental: For therapeutic monitoring, 3-4×10^6 DLD1-DR cells suspended in Matrigel-PBS mixture (1:1) were subcutaneously injected in the left flanks of 10 nude mice (100 μL per mouse, mice labeled TM1-TM10). Tumor volumes were monitored and measured once a week using a Vernier caliper. When the average tumor volumes reached 100 mm^3, mice were randomized into 2 groups of 5: vehicle (mice #TM1, TM3, TM4, TM5, & TM10) and treated (mice #TM2, TM6, TM7, TM8, & TM9). Once a week, mice in the treated group received MK2206-HCl (100 mg/kg) and those in the vehicle group were injected with equivalent volume of DMSO, as described previously. Smith, J. A., L. J. Stallons, and R. G. Schnellmann, Am J Physiol Renal Physiol, 2014. 307(4): p. F435-44. After 3 weeks of treatment, tumor volumes increased over 1000 mm^3 and the experiment was terminated. The animals were then euthanized, and the tumors were harvested for post-mortem histology and IHC. Tumor volumes were calculated as [(Width)2×Length]/2.

EDB-FN [4] = molecular target: T1, EDB-FN (Homo sapiens, UniProt P02751); test: ZD2-Cy5.5 staining of human tissue; parameters: from tissue; host or cells: deparaffinized sections of human pancreatic cancer, PanIN and normal pancreas; conditions: 500 nM
T1 sequence (P02751 32-2267 isoform P02751-13 limits assumed): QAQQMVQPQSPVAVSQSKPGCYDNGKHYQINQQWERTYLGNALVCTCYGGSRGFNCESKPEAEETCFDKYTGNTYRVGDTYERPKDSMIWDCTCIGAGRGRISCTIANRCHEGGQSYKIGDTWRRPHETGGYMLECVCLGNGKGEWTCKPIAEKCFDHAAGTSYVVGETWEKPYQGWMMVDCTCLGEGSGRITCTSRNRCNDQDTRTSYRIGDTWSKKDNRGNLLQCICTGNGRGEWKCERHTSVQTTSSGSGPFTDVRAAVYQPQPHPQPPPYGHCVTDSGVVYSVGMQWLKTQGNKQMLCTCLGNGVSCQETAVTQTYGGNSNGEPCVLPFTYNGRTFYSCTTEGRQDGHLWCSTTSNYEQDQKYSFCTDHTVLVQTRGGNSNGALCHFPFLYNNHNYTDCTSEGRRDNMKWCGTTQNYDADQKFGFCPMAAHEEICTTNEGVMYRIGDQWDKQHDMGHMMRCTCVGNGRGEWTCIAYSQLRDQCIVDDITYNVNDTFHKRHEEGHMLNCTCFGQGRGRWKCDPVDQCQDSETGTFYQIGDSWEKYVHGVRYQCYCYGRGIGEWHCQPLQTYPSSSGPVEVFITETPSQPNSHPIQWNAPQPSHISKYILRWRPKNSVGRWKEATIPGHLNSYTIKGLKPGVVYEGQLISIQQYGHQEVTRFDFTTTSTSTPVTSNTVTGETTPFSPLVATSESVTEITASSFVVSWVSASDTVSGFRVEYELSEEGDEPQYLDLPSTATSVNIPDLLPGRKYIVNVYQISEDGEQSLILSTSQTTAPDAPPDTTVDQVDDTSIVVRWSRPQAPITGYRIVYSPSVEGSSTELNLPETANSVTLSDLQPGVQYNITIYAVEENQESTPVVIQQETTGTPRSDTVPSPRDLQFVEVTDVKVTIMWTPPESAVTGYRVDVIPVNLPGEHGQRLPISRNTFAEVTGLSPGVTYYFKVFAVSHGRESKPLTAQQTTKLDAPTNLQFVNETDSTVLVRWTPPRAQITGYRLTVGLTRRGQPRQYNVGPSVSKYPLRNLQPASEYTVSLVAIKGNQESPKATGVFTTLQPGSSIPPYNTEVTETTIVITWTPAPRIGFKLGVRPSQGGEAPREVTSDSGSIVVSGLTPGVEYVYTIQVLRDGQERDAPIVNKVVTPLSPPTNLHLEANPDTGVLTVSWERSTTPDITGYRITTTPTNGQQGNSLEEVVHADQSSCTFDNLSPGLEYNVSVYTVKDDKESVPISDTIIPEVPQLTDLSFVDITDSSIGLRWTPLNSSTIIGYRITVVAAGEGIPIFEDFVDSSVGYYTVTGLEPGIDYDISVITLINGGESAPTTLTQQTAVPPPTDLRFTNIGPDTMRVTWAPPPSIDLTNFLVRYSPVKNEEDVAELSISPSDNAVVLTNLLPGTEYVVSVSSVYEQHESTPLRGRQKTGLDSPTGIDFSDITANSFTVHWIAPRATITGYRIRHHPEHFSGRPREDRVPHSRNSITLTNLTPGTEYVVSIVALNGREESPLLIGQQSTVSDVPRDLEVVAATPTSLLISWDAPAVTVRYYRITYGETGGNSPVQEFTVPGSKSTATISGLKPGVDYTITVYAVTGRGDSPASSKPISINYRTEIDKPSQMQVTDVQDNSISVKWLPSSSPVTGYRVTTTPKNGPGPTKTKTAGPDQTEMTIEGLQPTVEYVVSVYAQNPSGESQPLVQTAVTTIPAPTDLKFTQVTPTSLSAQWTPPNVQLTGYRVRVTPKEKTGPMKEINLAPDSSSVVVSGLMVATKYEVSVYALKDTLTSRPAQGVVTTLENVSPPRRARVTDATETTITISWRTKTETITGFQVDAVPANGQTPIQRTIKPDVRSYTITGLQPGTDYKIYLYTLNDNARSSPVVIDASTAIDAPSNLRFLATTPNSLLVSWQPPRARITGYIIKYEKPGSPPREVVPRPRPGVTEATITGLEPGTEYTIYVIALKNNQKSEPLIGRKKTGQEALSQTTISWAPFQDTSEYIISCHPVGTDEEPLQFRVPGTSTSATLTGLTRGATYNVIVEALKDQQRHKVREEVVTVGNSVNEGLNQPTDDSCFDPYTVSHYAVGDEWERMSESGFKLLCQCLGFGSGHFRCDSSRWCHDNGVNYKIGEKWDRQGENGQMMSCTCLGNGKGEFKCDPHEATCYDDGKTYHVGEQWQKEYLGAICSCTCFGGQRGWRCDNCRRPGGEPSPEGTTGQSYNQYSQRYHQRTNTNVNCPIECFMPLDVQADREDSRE
Experimental: Tissue sections from PaCa patients (Case Comprehensive Cancer Center, Cleveland, OH) were deparaffinized with xylene, ethanol, and washed with water. Blocking was performed with 10% goat serum (Invitrogen, Carlsbad, CA) in PBS with 0.1% Tween 20 (PBS-T) for 30 minutes and incubated with 500 nM ZD2-Cy5.5 in PBS-T for 1 hour at 37° C. Following three washes with PBS-T, the sections were mounted using Fluoroshield mounting medium (Abcam, Cambridge, UK). Images were acquired on a FV1000 (Olympus, Waltham, MA) confocal microscope using pre-programmed emission and excitation filters for Cy5.5 (excitation: 635 nm; emission: 693 nm) and DAPI (excitation: 405 nm; emission: 461 nm), using a 10× objective lens. All tissue samples were imaged at the same laser power and sensor gain. Images were generated from single-channel grayscale images using FIJI software.

EDB-FN [5] = molecular target: T1, EDB-FN; test: Peptide binding study of OSCC spheroids with ZD2-Cy5.5; assay type: cell-based; conditions: ZD2-Cy5.5 125 nM, 15 minutes, ratio to Hoechst
Experimental: Coverslip plates (4-well, Ibidi GmbH, Martinsried, Germany) were coated with Cultrex Basement Membrane Matrix (350 μL, Trevigen, Gaithersburg, MA, USA). For spheroid formation, 2×10^5 OSCC cells were seeded into prepared wells, incubated for 2 days, and photographed with the Moticam T2 camera (Motic, Hong Kong, China). For peptide binding, 1×10^5 cells were seeded into prepared wells and incubated for 2 days. Spheroids were stained with ZD2-Cy5.5 (125 nM), synthesized as previously described, and Hoechst (1:2000 dilution) (Invitrogen, Carlsbad, CA, USA) dyes for 15 minutes, washed 3× with DPBS (Thermo Fisher Scientific), and imaged with confocal laser scanning microscopy using the Olympus FV1000 system (Olympus Life Science, Tokyo, Japan).
Confocal fluorescence images were analyzed using FIJI. For quantification, images were thresholded to generate ROIs of both stains. For spheroid size, the average size of Hoechst ROIs was calculated. For staining intensity, the average signal intensities of ZD2-Cy5.5 and Hoechst ROIs were calculated, along with the ratio between the average intensities.

EDB-FN [6] = test: ZD2-Cy5.5 staining of frozen tissue sections, BC-1 blocking experiment; conditions: PaCa xenograft tissue sections, excess BC1 antibody
Experimental: For assessment of binding specificity of ZD2 peptide, flash frozen samples of tumor and normal tissues were collected from the euthanized tumor bearing mice and embedded in optimal cutting temperature media. The embedded samples were then immersed in liquid nitrogen for 5 minutes and transferred to −80° C. for storage before cryosectioning. Tissue sections were blocked for 1 hr in PBS containing 0.05% Tween-20 and 10% normal goat serum (Gibco, Gaithersburg, MD) and then stained with BC-1 primary monoclonal antibody (1:400) or ZD2-Cy5.5 (500 nM) at 4° C. overnight or room temperature incubation for 2.5 hr, respectively, and then washed with PBS-T buffer. Secondary Alexa Fluor 594 anti-rabbit was incubated with the BC-1 treated sections for 1 hour at room temperature (1:1000). For the blocking experiment, the tissue sections were first incubated with an excess of BC1 antibody at 4° C. overnight, then washed three times with PBS-T. The sections were then incubated with ZD2-Cy5.5 at room temperature incubation for 2.5 hr. The stained sections were washed with PBS-T buffer and images were acquired on an Olympus FV1000 (Waltham, MA) confocal microscope using pre-programmed emission and excitation filters for Cy5.5 (excitation: 635 nm; emission: 693 nm) and DAPI (excitation: 405 nm; emission: 461 nm), using a 10× objective lens.

ZD2-Cy5.5 binding (EDB-FN [4]; human PaCa tissue) | ZD2-Cy5.5 binding (EDB-FN [4]; normal pancreatic tissue) | ZD2-Cy5.5 binding (EDB-FN [4]; precancerous PanIN tissue) | staining intensity of SCC4 relative to HSC3 spheroids (EDB-FN [5]) | ZD2-Cy5.5 binding in the presence of the anti-EDB-FN antibody (EDB-FN [6]) | Compound | invasive potential [1] | inhibition of phospho-AKT (T308 and S473) [2] | decrease in EDB-FN mRNA (EDB-FN [3]) | tumor response to therapy (DLD1-DR tumors; DLD1-DR tumors, MK2206-HCl 100 mg/kg once a week for 3 weeks) | average tumor volume (DLD1-DR tumors; week 1 (baseline), MK2206-HCl 100 mg/kg once a week) [mm^3] | average tumor volume (DLD1-DR tumors; week 4, after 3 weeks of MK2206-HCl 100 mg/kg once a week) [mm^3]
 |  |  |  |  | NC1(c2ccc(-c3nc4ccn5c(=O)[nH]nc5c4cc3-c3ccccc3)cc2)CCC1 [MK2206-HCl] | reduced the invasive potential | robust inhibition | 10-15% | did not respond to therapy | 110.5±11.97 | 1249.7±199.3
high | low | moderate | approximately 2 fold | blocked | ZD2-Cy5.5: EDB-FN-specific fluorescent peptide probe, ZD2 peptide labeled with Cy5.5 (TVRTSAD; also: labeled with Cy5.5, site and linker not given here) |  |  |  |  |  | 
